Measurements taken from patent publication US7432360B2, “Multi-dose erythropoietin formulations” (Aventis Pharmaceuticals Inc., priority 2005, dated 2008).
Where two headings read alike, the source gives them in different places.

Assays:
[1] = test system: indicator aerobic bacteria and molds; assay: Preservative challenge test (USP and EP criteria); type: cell-based; settings: in the EPO formulation
[2] = Appearance of the solution when the preservative is used in the EPO formulation; type: physicochemical
Experimental: Multi-dose EPO-containing solutions were formulated as sterile, non-pyrogenic, colorless aqueous solutions in water for injection at 10,000 units and 20,000 units concentration. Solutions prepared contained a 20 mM phosphate buffer (sodium phosphate monobasic monohydrate, and sodium phosphate dibasic heptahydrate), 0.01% w/v polysorbate 20 as an antiadsorbent, 0.45-0.8% w/v sodium chloride (depending on the preservative system that was used, the amount of sodium chloride was adjusted to produce an Osmolality of approximately 300 mOsm/kg), and a preservative system.

[3] = Stability of EPO in preserved formulations, reverse phase HPLC assay (% label claim); type: physicochemical; settings: in the presence of thimerosal
Experimental: Prototype batches were made using these selected preservatives and placed on stability at 5° C. and 25° C. Samples were tested by a reverse phase HPLC method.
Detection of the EPO protein was monitored at 210 nm.

[4] = pH>3; cited from earlier work
[5] = preservative in EPO formulation (phosphate buffer, polysorbate 20, sodium chloride, pH approx. 7.0)

| Compound | appearance of solution [2, 5] | also measured |
| --- | --- | --- |
| C[CH2][Hg][S]c1ccccc1C(=O)[O-].[Na+] [Thimerosal] | clear | preservative efficacy [1]: good preservative efficacy; chemical stability of the EPO formulation [3]: good chemical stability |
| Oc1ccccc1 [phenol] |  | appearance of solution [2]: hazy to cloudy |
| CC(C)(O)C(Cl)(Cl)Cl [chlorobutanol] |  | stability of chlorobutanol [4]: not stable |
| CCCOC(=O)c1ccc(O)cc1 [propyl paraben] | hazy to cloudy |  |
| O=[N+]([O-])[O-].[Hg+][c]1ccccc1 [phenyl mercuric nitrate] | cloudy |  |
| COC(=O)c1ccc(O)cc1 [Methyl paraben] | hazy to cloudy |  |
| Cc1cccc(O)c1 [m-cresol] | hazy to cloudy |  |
